The values that follow come from patent US9795679B2, “Biodegradable compositions suitable for controlled release” (INGELL TECHNOLOGIES HOLDING B.V., priority 2011, dated 2017).

This data set is described as follows: Celecoxib solubility in PBS with Tween 80. In kind it is physicochemical. The note with it: PBS with 0.2% Tween 80, aqueous with cosolvent or surfactant or cyclodextrin.

Converted amounts (≈) assume the structure as drawn.

In turn, `Cc1ccc(-c2cc(C(F)(F)F)nn2-c2ccc(S(N)(=O)=O)cc2)cc1` [celecoxib] displayed a solubility of 100 to 200 µg/mL (≈ 262 to 524 µM).
